Consider ten molecules from ChEMBL document CHEMBL4715865, “Antimyeloma Potential of Caffeic Acid Phenethyl Ester and Its Analogues through Sp1 Mediated Downregulation of IKZF1-IRF4-MYC Axis” (J Nat Prod, 2020).

In assay [1] the test system is KMM-1. The assay can be described thus: Growth inhibition of human KMM-1 cells at 1 to 10 uM after 48 hrs by PrestoBlue cell viability assay. Format: functional, cell-based. The conditions noted are these: dose 1-10 µM.
The subject of assay [2] is KMM-1. The assay can be described thus: Down regulation of cyclin D3 expression in human KMM-1 cells at 5 to 50 uM after 48 hrs by immunoblotting analysis. Format: functional, cell-based. The note with it: dose 5-50 µM.
Assay [3] relates to KMM-1. As to the kind of experiment: Growth inhibition of human KMM-1 cells at 0.001 to 50 uM after 48 hrs by PrestoBlue cell viability assay. Format: functional, cell-based. The note with it: dose 0.001-50 µM.
Assay [4] in a line: Induction of apoptosis in human KMM-1 cells assessed as apoptotic cells at 10 uM after 72 hrs by Annexin V/PropidiumIodide staining based flow cytometric analysis relative to control. Format: functional. For orientation: In flow cytometry, cells or beads pass a laser one at a time.
A short description of assay [5]: Induction of apoptosis in human MM1.R cells assessed as apoptotic cells at 10 uM after 72 hrs by Annexin V/PropidiumIodide staining based flow cytometric analysis relative to control. It counts as functional, MM.1R.
For assay [6], the system named is KMM-1. The assay can be described thus: Growth inhibition of human KMM-1 cells at 10 uM after 48 hrs by PrestoBlue cell viability assay relative to control. Format: functional.
Assay [7] in a line: Induction of apoptosis in human KMM-1 cells assessed as increase in cleaved caspace-3 expression at 50 uM after 48 hrs by immunoblotting analysis. It counts as functional.

Active and inactive are the calls of the source. The calls are words filed in the database; no cut-off is given here.

Take `O=C(/C=C/c1ccc(O)c(O)c1)NCCc1ccccc1`: the “growth inhibition (GI)” value in assay [1] is “Active”. The result in assay [2] was inactive.

`Nc1cccc2c1C(=O)N(C1CCC(=O)NC1=O)C2=O` (stereo not given) [POMALIDOMIDE]: in assay [3], the “growth inhibition (GI)” value was “inactive”. Further, the Activity in assay [4] was determined as 18.4%; in assay [5], 43%.

In the case of `COc1cc(/C=C/C(=O)OCCCc2ccccc2)cc(OC)c1O`, the “growth inhibition (GI)” value in assay [6] is “inactive”.

`O=C(/C=C/c1ccc(O)c(O)c1)OCCC1CCCCC1`: the “growth inhibition (GI)” value in assay [1] is “Active”. Moreover, the “fold change (FC)” value in assay [7] is given as 3.2.

`COc1cc(/C=C/C(=O)OCCc2ccccc2)cc(OC)c1O`: in assay [6], the “growth inhibition (GI)” value is “inactive”.

`O=C(/C=C/c1cccc(O)c1O)OCCCc1ccccc1`: the “growth inhibition (GI)” value in assay [6] is “inactive”.

With `COc1cc(/C=C/C(=O)OCCCc2ccccc2)ccc1O`, the “growth inhibition (GI)” value in assay [6] was “inactive”.

Regarding `O=C(O)/C=C/c1ccc(O)c(O)c1`, the “growth inhibition (GI)” value in assay [1] is “inactive”. The result in assay [2] was inactive.

On to `O=C(/C=C/c1ccc(O)cc1O)OCCCc1ccccc1`, for which the “growth inhibition (GI)” value in assay [6] was “inactive”.

Take `COc1cc(/C=C/C(=O)OCCc2ccccc2)ccc1O`: the “growth inhibition (GI)” value in assay [6] is “inactive”.
